Results reported in patent US20160297851A1, “BROAD SPECTRUM […]” (priority 2012, published 2016).
≈ marks a conversion by molar mass, not a printed value. Where two headings read alike, the source gives them in different places.

What was measured:
[1] = test system: Bacteroides fragilis; assay: microbe, parasite or virus in culture; assay type: cell-based
[2] = test system: Chlamydia trachomatis; assay: microbe, parasite or virus in culture; assay type: cell-based; conditions: eradication from human HeLa 229 cells, 24 hours
[3] = target: full-length wild type S. aureus SPase (Pro-variant) (Staphylococcus aureus, UniProt P0A070); assay: Equilibrium binding, arylomycin fluorescence
[4] = test system: Streptococcus pyogenes M1-5448; assay: microbe, parasite or virus in culture; assay type: cell-based
[5] = test system: lepB(P29S) S. aureus 8325; assay: microbe, parasite or virus in culture; assay type: cell-based, Staphylococcus aureus; conditions: Table 3, P3 position derivatives; unit not given
[6] = test system: S. aureus Rosenbach 328; assay: microbe, parasite or virus in culture; assay type: cell-based; conditions: Staphylococcus aureus; MRSA strain
[7] = test system: spsB(S29P) S. epidermidis RP62A; assay: microbe, parasite or virus in culture; assay type: cell-based, Staphylococcus epidermidis

## CCCCCCCCCCCCCCCC(=O)N(C)[C@H](CO)C(=O)N[C@H](C)C(=O)NCC(=O)N(C)[C@@H]1C(=O)N[C@@H](C)C(=O)N[C@H](C(=O)O)Cc2ccc(O)c(c2)-c2cc1ccc2O [Arylomycin C16, arylomycin C16]
[1]
  MIC: > 16 µg/mL
[2]
  MIC: 6 µg/mL (≈ 6.81 µM)
[3]
  Kd: 1280 ± 278 nM
[4]
  MIC: 16 µg/mL (≈ 18.2 µM)
[4]; Streptococcus pyogenes, M15448, read-out: MIC
  MIC: 8 µg/mL (≈ 9.08 µM)
[4]; listed as arylomycin A-C16
  MIC: 8 µg/mL (≈ 9.08 µM)
[5]
  minimal inhibitory concentration (MIC): 4
[6]
  MIC: 25 µg/mL (≈ 28.4 µM)
[7]; Ser to Pro mutation at position 29 of SpsIB
  fold elevated MIC compared to the wild type strain: 32 fold
[7]; Staphylococcus epidermidis, read-out: MIC
  MIC: 8 µg/mL (≈ 9.08 µM)
